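Compound exposure: 48 hours, 5 concentrations, 96-well plates. GI50 marks 50% less growth.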 Calls of active or inactive are those of the source. No stated cut-off is given here; in the data, active = GI50 up to about 1.1 µM and inactive = higher.
Experiments:
Experiment in all cases: NCI-60 cell line screen, 48 h
[1] = test system: UACC-62
[2] = test system: Malme-3M
[3] = test system: TK-10
[4] = test system: DU-145
[5] = test system: OVCAR-5
[6] = test system: SK-MEL-2
[7] = test system: CAKI-1
[8] = test system: NCI-H226
[9] = test system: CCRF-CEM
[10] = test system: SNB-75
[11] = test system: T47D
[12] = test system: NCI/ADR-RES
[13] = test system: SF-295
[14] = test system: BT-549
[15] = test system: A498
[16] = test system: OVCAR-4
[17] = test system: Hs-578T
[18] = test system: NCI-H460
[19] = test system: HOP-92
[20] = test system: HCC 2998

SMILES	GI50 [1]	GI50 [2]	GI50 [3]	GI50 [4]	GI50 [5]	GI50 [6]	GI50 [7]	GI50 [8]	GI50 [9]	GI50 [10]	GI50 [11]	GI50 [12]	GI50 [13]	GI50 [14]	GI50 [15]	GI50 [16]	GI50 [17]	GI50 [18]	GI50 [19]	GI50 [20]
O=C(O)C(Cc1ccc(O)c([N+](=O)[O-])c1)N1C(=O)c2ccccc2C1=O (stereo not given)	> 100 µM (inactive)	> 100 µM (inactive)	> 100 µM (inactive)	> 100 µM (inactive)	> 100 µM (inactive)	> 100 µM (inactive)	> 100 µM (inactive)	> 100 µM (inactive)	> 100 µM (inactive)	> 100 µM (inactive)	> 100 µM (inactive)	> 100 µM (inactive)	> 100 µM (inactive)	> 100 µM (inactive)	> 100 µM (inactive)	> 100 µM (inactive)	> 100 µM (inactive)	> 100 µM (inactive)	> 100 µM (inactive)	–
CCOC(=O)C1(C#N)C2(C#N)C(N)=NC(ON=C(C)C)(ON=C(C)C)C12C#N (stereo not given)	> 100 µM (inactive)	> 100 µM (inactive)	> 100 µM (inactive)	> 100 µM (inactive)	> 100 µM (inactive)	> 100 µM (inactive)	> 100 µM (inactive)	> 100 µM (inactive)	> 100 µM (inactive)	–	> 100 µM (inactive)	> 100 µM (inactive)	> 100 µM (inactive)	> 100 µM (inactive)	> 100 µM (inactive)	> 100 µM (inactive)	> 100 µM (inactive)	> 100 µM (inactive)	> 100 µM (inactive)	> 100 µM (inactive)
C/C1=C/C(C)CC(C)OC(=O)C(C)NC(=O)C(Cc2ccc(O)c(I)c2)N(C)C(=O)CNC(=O)C(C)C1 (stereo not given)	–	0.0272 µM (active)	< 0.01 µM (active)	0.0643 µM (active)	8.81 µM (inactive)	–	< 0.01 µM (active)	–	< 0.01 µM (active)	< 0.01 µM (active)	0.229 µM (active)	0.0313 µM (active)	0.0101 µM (active)	< 0.01 µM (active)	< 0.01 µM (active)	< 0.01 µM (active)	< 0.0109 µM (active)	< 0.01 µM (active)	< 0.0112 µM (active)	< 0.01 µM (active)
CCOc1ccc2ccc3cccnc3c2n1	27 µM (inactive)	97.1 µM (inactive)	34.2 µM (inactive)	> 100 µM (inactive)	55.6 µM (inactive)	81.7 µM (inactive)	> 100 µM (inactive)	39 µM (inactive)	59 µM (inactive)	85.9 µM (inactive)	32.7 µM (inactive)	37.7 µM (inactive)	39.3 µM (inactive)	> 100 µM (inactive)	21 µM (inactive)	69.2 µM (inactive)	> 100 µM (inactive)	36.3 µM (inactive)	44.7 µM (inactive)	51.6 µM (inactive)
COc1cccc(OC)c1/C=C1\OC(=O)c2cccc(OC)c21	2.62 µM (inactive)	3.42 µM (inactive)	11.5 µM (inactive)	5.32 µM (inactive)	13.2 µM (inactive)	4.14 µM (inactive)	4.68 µM (inactive)	3.84 µM (inactive)	3.84 µM (inactive)	2.96 µM (inactive)	5.33 µM (inactive)	3.51 µM (inactive)	3.13 µM (inactive)	5.22 µM (inactive)	4.14 µM (inactive)	> 30.1 µM (inactive)	3.96 µM (inactive)	2.65 µM (inactive)	8.69 µM (inactive)	3.16 µM (inactive)
CCOC(=O)N/N=C(\CC)NO	> 100 µM (inactive)	> 100 µM (inactive)	> 100 µM (inactive)	> 100 µM (inactive)	> 100 µM (inactive)	> 100 µM (inactive)	> 100 µM (inactive)	> 100 µM (inactive)	> 100 µM (inactive)	–	> 100 µM (inactive)	> 100 µM (inactive)	–	> 100 µM (inactive)	> 100 µM (inactive)	> 100 µM (inactive)	> 100 µM (inactive)	> 100 µM (inactive)	> 100 µM (inactive)	> 100 µM (inactive)
c1ccc2c(c1)nc1ccccn12	> 100 µM (inactive)	> 100 µM (inactive)	> 100 µM (inactive)	> 100 µM (inactive)	> 100 µM (inactive)	–	–	> 100 µM (inactive)	> 100 µM (inactive)	> 100 µM (inactive)	> 100 µM (inactive)	> 100 µM (inactive)	> 100 µM (inactive)	> 100 µM (inactive)	1.37 µM (inactive)	–	33.6 µM (inactive)	> 100 µM (inactive)	> 100 µM (inactive)	> 100 µM (inactive)

Source: ChEMBL document CHEMBL1201862, “PubChem BioAssay data set” (2004)
